Source: PubChem BioAssay (NCI)
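How tested: cells in 96-well plates exposed to compound for 48 hours at five concentrations. TGI marks complete inhibition of growth.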

How the values were obtained:
Assay in all cases: NCI tumour cell line growth inhibition, 48 h
[1] = tested on: NCI-H23 lung
[2] = tested on: CCRF-CEM leukemia
[3] = tested on: HCT-116 colon
[4] = tested on: SF-295 CNS
[5] = tested on: SF-539 CNS
[6] = tested on: OVCAR-3 ovarian
[7] = tested on: ACHN renal
[8] = tested on: NCI-H226 lung
[9] = tested on: SK-MEL-28 melanoma
[10] = tested on: KM12 colon
[11] = tested on: SR leukemia
[12] = tested on: TK-10 renal
[13] = tested on: RXF 393 renal
[14] = tested on: NCI-H522 lung
[15] = tested on: HT29 colon
[16] = tested on: LOX IMVI melanoma
[17] = tested on: IGROV1 ovarian
[18] = tested on: A498 renal
[19] = tested on: NCI-H460 lung
[20] = tested on: MDA-N
[21] = tested on: K-562 leukemia
[22] = tested on: HS 578T breast
[23] = tested on: PC-3 prostate
[24] = tested on: MOLT-4 leukemia
[25] = tested on: OVCAR-4 ovarian
[26] = tested on: SK-MEL-2 melanoma
[27] = tested on: HOP-62 NSCLC
[28] = tested on: HCC-2998 colon
[29] = tested on: MDA-MB-231 breast
[30] = tested on: BT-549 breast
[31] = tested on: NCI/ADR-RES ovarian
[32] = tested on: SK-MEL-5 melanoma
[33] = tested on: 786-0 renal
[34] = tested on: SNB-75 CNS
[35] = tested on: MCF7 breast
[36] = tested on: U251 CNS
[37] = tested on: SK-OV-3 ovarian
[38] = tested on: SF-268 CNS
[39] = tested on: MDA-MB-435
[40] = tested on: DU-145 prostate
[41] = tested on: HOP-92 NSCLC
[42] = tested on: M14 melanoma
[43] = tested on: SNB-19 CNS
[44] = tested on: OVCAR-5 ovarian
[45] = tested on: UACC-257 melanoma
[46] = tested on: RPMI-8226 leukemia
[47] = tested on: CAKI-1 renal
[48] = tested on: SN12C renal
[49] = tested on: OVCAR-8 ovarian
[50] = tested on: HCT-15 colon
[51] = tested on: UACC-62 melanoma
[52] = tested on: HL-60(TB) leukemia
[53] = tested on: SW-620 colon
[54] = tested on: A549 NSCLC
[55] = tested on: MALME-3M melanoma
[56] = tested on: T-47D breast
[57] = tested on: EKVX NSCLC
[58] = tested on: UO-31 renal
[59] = tested on: COLO 205 colon

What does the source list for `COc1ccc(O)c(/C=N/NC(=S)N2CCCCC2)c1`?
TGI [1]: 20.4 µM; TGI [2]: > 47.8 µM; TGI [3]: > 100 µM; TGI [4]: > 100 µM; TGI [5]: > 100 µM; TGI [6]: > 13.4 µM; TGI [7]: 23.3 µM; TGI [8]: 7.96 µM; TGI [9]: > 83.4 µM; TGI [10]: > 100 µM; TGI [11]: > 24.5 µM; TGI [12]: > 100 µM; TGI [13]: > 100 µM; TGI [14]: > 62.7 µM; TGI [15]: > 92.3 µM; TGI [16]: > 46 µM; TGI [17]: > 67.4 µM; TGI [18]: > 41.5 µM; TGI [19]: > 30.1 µM; TGI [20]: > 100 µM; TGI [21]: > 21.8 µM; TGI [22]: > 100 µM; TGI [23]: > 100 µM; TGI [24]: > 100 µM; TGI [25]: > 100 µM; TGI [26]: > 100 µM; TGI [27]: > 20.1 µM; TGI [28]: 19.6 µM; TGI [29]: > 100 µM; TGI [30]: > 94.8 µM; TGI [31]: > 23.2 µM; TGI [32]: 30.9 µM; TGI [33]: > 78.2 µM; TGI [34]: > 100 µM; TGI [35]: > 100 µM; TGI [36]: > 100 µM; TGI [37]: > 100 µM; TGI [38]: 62.9 µM; TGI [39]: > 100 µM; TGI [40]: > 43.1 µM; TGI [41]: 50.8 µM; TGI [42]: 10.9 µM; TGI [43]: > 94.9 µM; TGI [44]: > 100 µM; TGI [45]: > 100 µM; TGI [46]: > 27.2 µM; TGI [47]: > 84.1 µM; TGI [48]: > 100 µM; TGI [49]: > 43.1 µM; TGI [50]: > 100 µM; TGI [51]: 23.8 µM; TGI [52]: > 23.1 µM; TGI [53]: > 100 µM; TGI [54]: > 100 µM; TGI [55]: 37.3 µM; TGI [56]: > 89.5 µM; TGI [57]: > 65.3 µM; TGI [58]: 6.22 µM; TGI [59]: > 100 µM
